What was measured:
Assay type in all cases: physicochemical
[1] = Thin film test, volatile losses (500 µm oil film on steel coupon, forced-draft oven, gravimetric)
From the text: (§1) The exact procedure, used here, has been described in detail by Stoncius, A. et al. in "Volatiles from Thin Film Degradation of Bio-based, Synthetic and Mineral Basestocks", published in Industrial Lubrication & Tribology, 2013, 65 (3) 209-215, 2013, Emerald Group Publishing Edition or by Brazinskiene, D. et al. in "Ester Basestock Vaporisation from Thin Oil Films", published in Lubrication Science, DOI: 10.1002/ls.1372, pp 1-17, 2017, Wiley Edition.
(§2) Briefly, an oil film of 500 µm thickness was coated on steel coupon and heated at given temperature for specific duration in a forced-draft oven. Afterwards, the volatile losses and insoluble residues were measured gravimetrically.
As discussed in the prior-art review, volatility can be successfully evaluated in a thin film test as described by Stoncius, A. et al. in "Volatiles from Thin Film Degradation of Bio-based, Synthetic and Mineral Basestocks" published in Industrial Lubrication & Tribology, 2013, 65 (3) 209-215, Emerald Group Publishing Edition or by Brazinskiene, D. et al. in "Ester Basestock Vaporisation from Thin Oil Films" published in Lubrication Science, DOI: 10.1002/ls.1372, pp 1-17, 2017, Wiley Edition. This thin-film method is much better suited for hydraulic fluid applications than NOACK or other tests, which employ 250°C or similar temperatures, related to engine oil applications. Also, the above method accounts for longer term decomposition reactions due to exposure to metal surfaces and oxidation, which is prevalent in hydraulic applications. Therefore, using the thin-film method short-term vapor losses were measured after 16 hrs and decomposition trends were compared after 36 hrs of testing. Heating temperature of 120°C was selected to compare thin films of α,ω dibasic esters with commercial basestocks. Table 5. Volatile emissions, % w/w from 500 µm thick films of α-ω dibasic esters and commercial basestocks at 120°C

[2] = Kinematic viscosity with capillary Cannon-Fenske viscometers; Viscosity Index calculated per ASTM D2270
Procedure: Kinematic viscosities at 40°C and 100°C were measured using capillary Cannon-Fenske viscometers per ASTM […]. Viscosity Index (the value, describing the rate of thinning with increasing temperature) was calculated per ASTM D2270.

[3] = Thin film test, oxidative stability (time to insoluble residues and to solidification); details: 500 µm thick films at 120°C
From the text: as §1, §2
Therefore, thin films of commercial basestocks and α-ω dibasic esters were compared by exposing their thin films to 120°C as described by Stoncius, A. et al. in "Volatiles from Thin Film Degradation of Bio-based, Synthetic and Mineral Basestocks" published in Industrial Lubrication & Tribology, 2013, 65 (3), 209-215, Emerald Group Publishing Edition or by Brazinskiene, D. et al. in "Ester Basestock Vaporisation from Thin Oil Films" published in Lubrication Science, DOI: 10.1002/ls.1372, pp 1-17, 2017, Wiley Edition.
The thin-film method determines how resistant oil is against formation of insoluble residues during oxidation. Degradation durations until initial formation of solid residues and complete solidification directly relate to oxidative stability.

[4] = Pour point and cloud point, cooling regime of ASTM D97
Procedure: Pour points and cloud points were determined using the same thermal cooling regime, as instructed by ASTM D97. The sample sizes were 5 to 15 mL during the measurements.
Cloud points were determined during the same run by visual inspection of the sample appearance at low temperature. The samples were removed from the freezer every 3°C for visual inspection and, if cloudy, meniscus movement with inversion. The pour point resembled the last measurement, at which the meniscus boundary was still moving within 5 seconds of horizontal inversion. All samples were tested in duplicate.
In engine oils and hydraulic fluids, low temperature fluidity is primarily determined by pour points [ASTM D97]. Generally, pour points below -30°C are considered sufficient. Some polymer additives, e.g. "Pour Point Depressants" (PPD), are able to improve low temperature fluidity. […] Therefore, initially pour points and cloud points [ASTM D2500 "Standard Test Method for Cloud Point of Petroleum Products and Liquid Fuels"] of α-ω dibasic esters were evaluated and shown in Table 4.

[5] = Solubility of lubricant additives in the basestocks
Procedure: Several typical lubricant additives have been tested for solubility in α-ω dibasic esters of 2-ethyl hexanol 26U18 and 26S12 as well as commercial basestock 350N. The additives were mixed in at temperatures of 50°C or lower and held for longer than a week at room temperature. Table 7. Solubility of lubricant additives, dissolved in α-ω dibasic esters and commercial basestocks
The additives were selected to represent different chemical categories: soaps, heterocycles, phosphorous derivatives, polymers, etc. Most of these additives are designed to be dissolved in paraffinic mineral oils and synthetic lubricants with some heating. It is often thought that esters are better solvents than mineral oils or synthetic hydrocarbons like poly α-olefins. Therefore, the tested concentrations were much higher than additive proportions for hydraulic fluids, as recommended by the additive manufacturers.

For “1,12-di(2-ethylhexyl) dodecanedioate [26S12, reference compound]”, the “Volatile emissions, 16 hrs” value ([1]; 500 µm thick films at 120°C, 16 hrs) was 0.8 % w/w, the “Volatile emissions, 36 hrs” value ([1]; 500 µm thick films at 120°C, 36 hrs) was 1.75 % w/w and the volatility ([1]; result in words, thin films at 120°C) was “much lower volatility”. For the same substance, the “Viscosity Index” value ([2]; calculated per ASTM D2270 from viscosities at 40°C and 100°C) was 147, the “Viscosity, mm^2/s at 40°C” value ([2]; kinematic viscosity at 40°C) was 14.72 mm^2/s and the “Viscosity, mm^2/s at 100°C” value ([2]; kinematic viscosity at 100°C) was 3.72 mm^2/s. For the same substance, the Full solidification observed [3] was 655 h, the Initial residues observed [3] was 583 h and the “Vapor loss at solidification” value ([3]; at the duration of full film solidification) was 86% w/w. The “Pour point, °C” value [4] was -48 °C, the “Cloud point, °C” value ([4]; visual inspection during the same run) was -30 °C and the “Solubility of 1% w/w Vanlube 7723” value ([5]; Alkyl dithiocarbamate, mixed in at 50°C or lower, held longer than a week at room temperature) was “soluble”. For the same substance, the “Solubility of 1% w/w Irgalube ML605A” value ([5]; Amine and phosphate derivatives, mixed in at 50°C or lower, held longer than a week at room temperature) was “soluble”, the “Solubility of 1% w/w Vanlube 7611 M” value ([5]; Phosphoro dithioate, mixed in at 50°C or lower, held longer than a week at room temperature) was “soluble” and the “Solubility of 5% w/w Viscoplex 10-310” value ([5]; Poly alkyl methacrylate, mixed in at 50°C or lower, held longer than a week at room temperature) was “soluble”. The “Solubility of 2% w/w Vanlube RI- A” value ([5]; Soap and ester derivatives, mixed in at 50°C or lower, held longer than a week at room temperature) was “soluble”, the “Solubility of 1% w/w Cobratec TT-100” value ([5]; Tolyl triazole, mixed in at 50°C or lower, held longer than a week at room temperature) was “soluble” and the Initial solution appearance ([5]; all tested additives blended in, unchanged after 1 week at room temperature) was “bright and clear”.

— EP3483233A1, “LUBRICANT BASE OIL COMPOSITIONS OF MONO-UNSATURATED DIBASIC ACID ESTERS WITH BRANCHED ALCOHOLS” (ARKEMA FRANCE, priority 2017, dated 2019)
